{ppp} = triphosphate
Key:
HBV cccDNA [1] = assay: Time-of-addition experiments on cccDNA synthesis; format: cell-based, HBV (Genotype D); conditions: for HBV cccDNA level: HepG2-hNTCP and dHepaRG
Procedure: FIGS. 3A-3F illustrate that F7 and poly-U/UC PAMP suppress de novo HBV cccDNA synthesis. (3A) Upper: Infection and poly-U/UC PAMP treatment schedule. Cells were treated with 100 ng/ml of poly-U/UC PAMP either for 24 hours before (Pre), for 48 hours after HBV infection (Post), or for 72 hours (pre/post). At 3 dpi cells were harvested and Hirt extracts were prepared (3B) HepG2-hNTCP cells and (3C) dHepaRG cells were analyzed by Southern blot (upper) and RT-qPCR (lower). For RT-qPCR. anal sis, values from DMSO treated control were set to 100% respectively, and data are shown as mean±standard deviations (SD) percentage of cccDNA in control samples. ***P<0.005, and ns=non-significant. (3D) HBV infection and F7 treatment schedule. Cells were treated with F7 (10 μM) either for 24 hours before (Pre), 24 hours during the time of infection (Co), d8 hours after infection (Post), or 96 hours pre/co/post). At 3 Dpi, the cells were harvested and. Hirt extracts prepared HepG2-hNTCP (3E) and dHepaRG cells (3F). Upper panels show Southern blot analysis. Lower panels show or RT-qPCR analysis and percent of cccDNA remaining in treated cells compared to control DMS)-treated cells. Values from DMSO-treated control cultures were set to 100%. Data was presented as mean±standard deviations (SD), *P<0.01, **P<0.005, ***P<0.001, ****P<0.0001 and ns=non-significant. CsA served as a treatment control. For Southern blots the position of mass markers are indicated.
To further define inhibitory effect of F7 and poly-U/UC on cccDNA biosynthesis, time-of-addition experiments were conducted in HepG2-hNTCP and dHepaRG cells. For poly-U/UC PAMP, treatment for 24 hours pre-infection (pre-treatment), from 1 to 3 dpi (post-treatment), and from 24 hours pre-infection onward through 3 dpi (pre/post-treatment) were conducted (FIG. 3A). […]

HBV cccDNA [2] = assay: Subcellular compartment analysis of PF-RC DNA and cccDNA (synchronous infection, cell fractionation); format: cell-based, HBV (Genotype D); conditions: HepG2-hNTCP, treated from time 0 through 3 dpi; F7 10 μM, poly-U/UC PAMP 100 ng/ml
Procedure: FIG. 4A-4D illustrate subcellular compartment analysis of antiviral activity. (4A) and (4C) Scheme of HBV infection with F7 treatment (4A) or poly-U/UC PAMP treatment (4C). HepG2-hNTCP cultures were inoculated with HBV at moi 1000 Geq/cell for 24 hr. On treatment day 0 the cultures received F7 (10 μM) or poly-U/UC PAMP (100 ng/ml). Cells were harvested for production of Hirt extracts at each time point shown through three days. Parallel cultures were harvested for Western blot analysis to monitor Lamin B1 and Calnexin as markers of […] and cytosol respectively. (4B) and (4D) DNA was analyzed by Southern blot using HBV-specific DNA probe. Viral protein-free DNAs (protein-free Relaxed Circular DNA [PF-RC DNA]and cccDNA) are indicated. The positions of mass markers are indicated. Lower panels show Western blot of Lamin B1 and Calnexin abundance.
Cells were inoculated with HBV for 6 hours at 4° C., then the inoculum was removed, cells rinsed and placed in 37° C. media to initiate synchronous infection (time 0), at which time the cells were treated with F7 (FIG. 4A), or poly-U/UC PAMP (FIG. 4C) through 3 dpi. Whole cell (W), nuclear (N), and cytoplasmic (C) extracts were harvested over the time course, at 3 and 6 hours post-infection, and daily over 1-3 dpi, and PF-RC and cccDNA abundance were analyzed by Southern blot. […] For poly-U/UC PAMP treatment, cells were also harvested over a similar time course (see FIG. 4C).
HBV entry assay and cell fractionation: Cells were inoculated with HBV in presence of 4% PEG for 6 hours at 4°C. To assess HBV entry, inoculum was removed by washing with PBS that included proteinase K and cells were shifted to 37° C. post-attachment. After incubation and treatment, the cells were lysed in a hypotonic buffer (100 MM HEPES, 15 mM MgCl2, 100 mM KCL and Nonidet P-40), and homogenized with a dounce homogenizer. The cytoplasmic fraction was separated from nuclei pellet by centrifugation (6000×g for 5 min at 4° C.). Nuclei pellet was resuspended in extraction buffer (20 mM HEPES, 15 mM MgCl2, 420 mM NaCl, 0.2 mM EDTA and 25% (v/v) Glycerol including DTI and protease inhibitor cocktail). Each cellular fraction was mixed with 1% SDS (v/v) and protein-free DNA was extracted using the Hirt extraction method.

Molecule | HBV cccDNA level (HBV cccDNA [1]; F7 10 μM administered once pre or co-treatment, 3 dpi) | HBV cccDNA level (HBV cccDNA [1]; F7 10 μM administered post-infection or pre/co/post through 3 dpi) | PF-RC DNA in subcellular fractions, Southern blot (HBV cccDNA [2]) | cccDNA accumulation, Southern blot (HBV cccDNA [2]) | synthesis of cccDNA (HBV cccDNA [1]; poly-U/UC PAMP 100 ng/ml pre-, post- and pre/post-treatment, HepG2-hNTCP and HepaRG cells, 3 dpi)
O=C(Nc1ccc2nc(NC(=O)c3ccc4ccccc4c3)sc2c1)c1ccccc1 [F7, N-(6-benzamido-1,3-benzothiazol-2-yl)naphthalene-2-carboxamide] | little effect on HBV cccDNA level | significant suppression of cccDNA levels | accumulation was reduced after 2-3 dpi | delayed and reduced | –
poly-U/UC PAMP: ~100 nt PAMP motif from the HCV genome comprising 5′ppp and the poly U/UC region, recognized by RIG-I; formulated in liposome (nucleic acid, RNA, 5' {ppp}, backbone and methylation of C not given here; formulated in liposome, ~100 nt PAMP motif from the HCV genome comprising 5′ppp and the poly U/UC region, recognized by RIG-I; formulated in liposome) GGCCAUCCUGUUUUUUUCCCUUUUUUUUUUUCUUUUUUUUUUUUUUUUUUUUUUUUUUUUUUUUUUCUCCUUUUUUUUUCCUCUUUUUUUCCUUUUCUUUCCUUU | – | – | Nuclear PF-RC DNA levels were reduced | reduction of cccDNA | uniformly significantly suppressed

— patent US20220241314A1, “COMPOSITIONS AND METHODS FOR TREATMENT OF HEPATITIS B VIRUS INFECTION” (priority 2019, published 2022)
